The values that follow come from ChEMBL document CHEMBL3991601, “The target landscape of clinical kinase drugs” (Science, 2017).

Test [1] concerns the target Serine/threonine-protein kinase N2 (Homo sapiens, UniProt Q16513).
The target of test [2] is Non-receptor tyrosine-protein kinase TYK2 (Homo sapiens, UniProt P29597).
Test [3] has as its target Mitogen-activated protein kinase kinase kinase 20 (Homo sapiens, UniProt Q9NYL2).
The target in test [4] is Mitogen-activated protein kinase 10 (Homo sapiens, UniProt P53779).
Test [5] deals with BMP-2-inducible protein kinase (Homo sapiens, UniProt Q9NSY1).
For test [6], the target named is STE20-like serine/threonine-protein kinase (Homo sapiens, UniProt Q9H2G2).
The target of test [7] is Guanine nucleotide-binding protein G(i) subunit alpha-2 (Homo sapiens, UniProt P04899).
In test [8] the target is T1, Non-receptor tyrosine-protein kinase TNK1 (Homo sapiens, UniProt Q13470).
T1 sequence (Q13470 whole entry): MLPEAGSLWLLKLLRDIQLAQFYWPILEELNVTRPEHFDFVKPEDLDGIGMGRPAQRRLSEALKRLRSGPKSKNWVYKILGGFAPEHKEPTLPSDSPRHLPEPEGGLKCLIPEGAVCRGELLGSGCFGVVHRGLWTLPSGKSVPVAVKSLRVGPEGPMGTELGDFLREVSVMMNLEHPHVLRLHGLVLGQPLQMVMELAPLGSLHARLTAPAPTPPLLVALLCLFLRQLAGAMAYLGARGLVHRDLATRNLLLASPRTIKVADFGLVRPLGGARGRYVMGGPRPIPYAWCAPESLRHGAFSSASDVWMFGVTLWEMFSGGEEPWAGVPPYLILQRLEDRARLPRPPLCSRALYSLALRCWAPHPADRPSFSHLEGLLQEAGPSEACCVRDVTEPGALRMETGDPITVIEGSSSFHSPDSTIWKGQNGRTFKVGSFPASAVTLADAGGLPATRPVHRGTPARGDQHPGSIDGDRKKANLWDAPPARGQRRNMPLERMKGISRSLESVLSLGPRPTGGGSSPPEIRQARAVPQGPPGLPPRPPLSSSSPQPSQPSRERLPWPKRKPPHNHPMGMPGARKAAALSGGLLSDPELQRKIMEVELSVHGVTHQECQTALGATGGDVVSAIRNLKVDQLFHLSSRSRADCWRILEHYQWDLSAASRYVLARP

Test [9] deals with Calcium/calmodulin-dependent protein kinase type II subunit gamma (Homo sapiens, UniProt Q13555).
Test [10] addresses Ephrin type-A receptor 5 (Homo sapiens, UniProt P54756).
Test [11] deals with T2, MAP kinase-activated protein kinase 5 (Homo sapiens, UniProt Q8IW41).
T2 sequence (Q8IW41 whole entry): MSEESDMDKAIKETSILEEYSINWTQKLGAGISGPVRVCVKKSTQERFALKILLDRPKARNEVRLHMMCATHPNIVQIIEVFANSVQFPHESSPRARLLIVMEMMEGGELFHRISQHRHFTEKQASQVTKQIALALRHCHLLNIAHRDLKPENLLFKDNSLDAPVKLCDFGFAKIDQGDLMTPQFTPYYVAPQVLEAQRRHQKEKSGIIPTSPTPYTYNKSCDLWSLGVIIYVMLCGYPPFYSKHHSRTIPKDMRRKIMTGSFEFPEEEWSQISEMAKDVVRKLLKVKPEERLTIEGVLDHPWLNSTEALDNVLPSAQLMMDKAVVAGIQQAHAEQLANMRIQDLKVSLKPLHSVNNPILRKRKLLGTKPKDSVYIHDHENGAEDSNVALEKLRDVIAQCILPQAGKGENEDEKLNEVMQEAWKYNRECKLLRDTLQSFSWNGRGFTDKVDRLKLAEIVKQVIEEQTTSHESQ

Test [12] addresses Ephrin type-A receptor 2 (Homo sapiens, UniProt P29317).
Test [13] has as its target Mitogen-activated protein kinase kinase kinase 4 (Homo sapiens, UniProt Q9Y6R4).
Test [14] has as its target T3, Signal recognition particle receptor subunit alpha (Homo sapiens, UniProt P08240).
T3 sequence (P08240 whole entry): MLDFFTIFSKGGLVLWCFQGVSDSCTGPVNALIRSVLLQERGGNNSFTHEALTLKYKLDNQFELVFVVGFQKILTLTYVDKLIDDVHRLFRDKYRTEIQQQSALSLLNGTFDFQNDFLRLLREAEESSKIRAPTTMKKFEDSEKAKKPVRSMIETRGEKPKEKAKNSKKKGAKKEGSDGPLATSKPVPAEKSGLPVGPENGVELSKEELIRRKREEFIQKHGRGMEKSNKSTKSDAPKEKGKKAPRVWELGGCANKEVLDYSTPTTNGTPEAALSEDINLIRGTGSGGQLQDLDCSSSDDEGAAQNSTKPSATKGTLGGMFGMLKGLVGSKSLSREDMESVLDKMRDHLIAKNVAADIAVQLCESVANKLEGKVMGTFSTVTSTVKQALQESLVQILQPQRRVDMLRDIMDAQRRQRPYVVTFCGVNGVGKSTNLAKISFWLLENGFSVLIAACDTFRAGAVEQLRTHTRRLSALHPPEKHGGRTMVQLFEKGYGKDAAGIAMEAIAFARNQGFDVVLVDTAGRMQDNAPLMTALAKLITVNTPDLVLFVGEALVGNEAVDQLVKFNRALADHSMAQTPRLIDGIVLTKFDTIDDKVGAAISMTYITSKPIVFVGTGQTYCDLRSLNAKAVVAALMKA

In test [15] the target is Serine/threonine-protein kinase/endoribonuclease IRE2 (Homo sapiens, UniProt Q76MJ5).

The structures appear in SMILES notation. Activity calls are given as the source filed them. For most assays here, no stated cut-off is given here; in the data, actives have a measured Kd and inactives only a lower limit. Where only a bound is given, the exact number is not on record here.

Chain of Serine/threonine-protein kinase/endoribonuclease IRE2 (Q76MJ5 whole entry): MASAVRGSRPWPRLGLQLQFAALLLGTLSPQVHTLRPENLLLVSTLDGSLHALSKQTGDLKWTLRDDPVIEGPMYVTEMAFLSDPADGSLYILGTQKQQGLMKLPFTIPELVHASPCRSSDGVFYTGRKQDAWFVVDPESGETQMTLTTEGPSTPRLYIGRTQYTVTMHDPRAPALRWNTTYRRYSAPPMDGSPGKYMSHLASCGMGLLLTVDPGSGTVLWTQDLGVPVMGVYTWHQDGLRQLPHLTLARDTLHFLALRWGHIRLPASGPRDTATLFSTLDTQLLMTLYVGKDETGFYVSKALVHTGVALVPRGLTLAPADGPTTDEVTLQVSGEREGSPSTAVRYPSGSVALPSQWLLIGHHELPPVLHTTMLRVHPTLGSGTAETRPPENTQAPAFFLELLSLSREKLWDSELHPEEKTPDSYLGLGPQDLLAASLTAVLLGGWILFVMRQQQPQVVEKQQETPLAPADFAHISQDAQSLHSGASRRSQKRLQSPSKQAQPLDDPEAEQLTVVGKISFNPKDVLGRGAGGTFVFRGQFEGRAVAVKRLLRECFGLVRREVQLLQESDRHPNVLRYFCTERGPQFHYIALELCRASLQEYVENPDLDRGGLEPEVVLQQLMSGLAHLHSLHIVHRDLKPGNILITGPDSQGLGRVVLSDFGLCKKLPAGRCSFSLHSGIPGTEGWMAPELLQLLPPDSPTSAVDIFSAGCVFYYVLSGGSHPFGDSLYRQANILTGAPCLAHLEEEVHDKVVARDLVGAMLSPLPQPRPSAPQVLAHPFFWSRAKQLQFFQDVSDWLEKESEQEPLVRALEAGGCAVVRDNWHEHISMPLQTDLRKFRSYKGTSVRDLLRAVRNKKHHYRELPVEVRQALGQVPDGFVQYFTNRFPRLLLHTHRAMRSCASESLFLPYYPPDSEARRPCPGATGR
Chain of Non-receptor tyrosine-protein kinase TYK2 (P29597 whole entry): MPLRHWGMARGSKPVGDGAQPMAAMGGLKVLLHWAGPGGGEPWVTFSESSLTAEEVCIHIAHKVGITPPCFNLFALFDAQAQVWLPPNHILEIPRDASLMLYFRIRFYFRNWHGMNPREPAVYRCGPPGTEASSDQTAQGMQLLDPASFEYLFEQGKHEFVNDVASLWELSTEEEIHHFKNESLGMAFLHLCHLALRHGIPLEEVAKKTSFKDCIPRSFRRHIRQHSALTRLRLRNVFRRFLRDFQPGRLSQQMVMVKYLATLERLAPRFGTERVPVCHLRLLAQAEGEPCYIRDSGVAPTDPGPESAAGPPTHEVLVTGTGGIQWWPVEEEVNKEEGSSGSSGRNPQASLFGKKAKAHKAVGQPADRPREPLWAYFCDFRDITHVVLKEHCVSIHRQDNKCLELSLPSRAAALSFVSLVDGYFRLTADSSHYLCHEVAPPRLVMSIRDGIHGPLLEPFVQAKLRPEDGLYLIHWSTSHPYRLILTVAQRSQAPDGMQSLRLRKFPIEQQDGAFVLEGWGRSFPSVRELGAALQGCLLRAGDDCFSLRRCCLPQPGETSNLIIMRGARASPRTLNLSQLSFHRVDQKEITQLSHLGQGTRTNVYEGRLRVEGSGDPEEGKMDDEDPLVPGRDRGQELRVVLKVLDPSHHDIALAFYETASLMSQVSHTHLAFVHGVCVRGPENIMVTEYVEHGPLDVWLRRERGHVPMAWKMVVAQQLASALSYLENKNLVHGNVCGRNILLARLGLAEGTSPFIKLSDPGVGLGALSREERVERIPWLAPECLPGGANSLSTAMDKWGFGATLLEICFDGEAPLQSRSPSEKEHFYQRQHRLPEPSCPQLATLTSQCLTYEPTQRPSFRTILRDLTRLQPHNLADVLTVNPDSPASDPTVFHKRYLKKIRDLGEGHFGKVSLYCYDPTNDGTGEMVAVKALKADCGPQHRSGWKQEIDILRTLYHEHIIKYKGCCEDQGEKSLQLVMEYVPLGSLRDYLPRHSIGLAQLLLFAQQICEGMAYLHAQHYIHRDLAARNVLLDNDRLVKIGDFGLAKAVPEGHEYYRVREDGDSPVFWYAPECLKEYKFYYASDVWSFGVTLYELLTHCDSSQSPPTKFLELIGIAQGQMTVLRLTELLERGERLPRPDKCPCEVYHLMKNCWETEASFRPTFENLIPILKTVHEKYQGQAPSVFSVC
Chain of Mitogen-activated protein kinase kinase kinase 4 (Q9Y6R4 whole entry): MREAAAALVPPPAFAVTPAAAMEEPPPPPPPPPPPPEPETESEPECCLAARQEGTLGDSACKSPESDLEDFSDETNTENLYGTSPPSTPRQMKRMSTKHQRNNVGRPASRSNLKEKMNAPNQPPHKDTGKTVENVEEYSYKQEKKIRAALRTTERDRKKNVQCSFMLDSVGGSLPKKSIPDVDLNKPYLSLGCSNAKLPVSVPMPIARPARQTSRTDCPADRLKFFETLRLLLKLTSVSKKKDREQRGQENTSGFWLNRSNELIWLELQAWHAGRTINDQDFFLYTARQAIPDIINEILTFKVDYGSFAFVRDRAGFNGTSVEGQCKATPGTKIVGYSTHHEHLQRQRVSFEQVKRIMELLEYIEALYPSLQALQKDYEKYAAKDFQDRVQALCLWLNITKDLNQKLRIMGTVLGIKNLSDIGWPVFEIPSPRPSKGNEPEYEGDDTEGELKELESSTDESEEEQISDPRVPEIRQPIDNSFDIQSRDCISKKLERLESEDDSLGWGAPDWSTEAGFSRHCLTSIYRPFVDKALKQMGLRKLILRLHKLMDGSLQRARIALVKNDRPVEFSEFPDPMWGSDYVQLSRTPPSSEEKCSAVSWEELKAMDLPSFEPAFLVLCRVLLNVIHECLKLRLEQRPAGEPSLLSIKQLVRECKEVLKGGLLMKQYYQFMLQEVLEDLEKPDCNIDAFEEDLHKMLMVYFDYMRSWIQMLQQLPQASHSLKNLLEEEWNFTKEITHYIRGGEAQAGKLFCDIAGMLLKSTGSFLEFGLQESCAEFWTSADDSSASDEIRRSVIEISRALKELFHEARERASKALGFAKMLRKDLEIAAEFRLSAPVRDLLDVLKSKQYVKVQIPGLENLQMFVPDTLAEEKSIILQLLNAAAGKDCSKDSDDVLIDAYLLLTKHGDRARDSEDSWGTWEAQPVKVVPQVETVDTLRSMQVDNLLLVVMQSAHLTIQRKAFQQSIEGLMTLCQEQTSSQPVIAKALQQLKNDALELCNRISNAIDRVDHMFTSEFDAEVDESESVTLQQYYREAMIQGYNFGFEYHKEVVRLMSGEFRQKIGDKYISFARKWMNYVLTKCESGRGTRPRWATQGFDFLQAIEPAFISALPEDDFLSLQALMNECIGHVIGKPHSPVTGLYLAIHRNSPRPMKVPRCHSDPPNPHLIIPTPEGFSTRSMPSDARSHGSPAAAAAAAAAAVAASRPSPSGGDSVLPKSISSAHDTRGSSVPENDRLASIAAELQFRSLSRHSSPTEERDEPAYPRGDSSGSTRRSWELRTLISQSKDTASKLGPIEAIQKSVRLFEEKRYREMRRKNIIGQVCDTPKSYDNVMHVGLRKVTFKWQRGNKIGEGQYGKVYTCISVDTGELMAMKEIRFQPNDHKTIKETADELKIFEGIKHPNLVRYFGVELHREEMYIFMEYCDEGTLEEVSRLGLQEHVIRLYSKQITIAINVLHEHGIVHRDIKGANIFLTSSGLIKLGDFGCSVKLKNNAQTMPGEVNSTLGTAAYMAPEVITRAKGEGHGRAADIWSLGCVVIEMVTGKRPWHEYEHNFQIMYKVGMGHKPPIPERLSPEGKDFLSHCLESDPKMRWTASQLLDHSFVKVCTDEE
Chain of Mitogen-activated protein kinase kinase kinase 20 (Q9NYL2 whole entry): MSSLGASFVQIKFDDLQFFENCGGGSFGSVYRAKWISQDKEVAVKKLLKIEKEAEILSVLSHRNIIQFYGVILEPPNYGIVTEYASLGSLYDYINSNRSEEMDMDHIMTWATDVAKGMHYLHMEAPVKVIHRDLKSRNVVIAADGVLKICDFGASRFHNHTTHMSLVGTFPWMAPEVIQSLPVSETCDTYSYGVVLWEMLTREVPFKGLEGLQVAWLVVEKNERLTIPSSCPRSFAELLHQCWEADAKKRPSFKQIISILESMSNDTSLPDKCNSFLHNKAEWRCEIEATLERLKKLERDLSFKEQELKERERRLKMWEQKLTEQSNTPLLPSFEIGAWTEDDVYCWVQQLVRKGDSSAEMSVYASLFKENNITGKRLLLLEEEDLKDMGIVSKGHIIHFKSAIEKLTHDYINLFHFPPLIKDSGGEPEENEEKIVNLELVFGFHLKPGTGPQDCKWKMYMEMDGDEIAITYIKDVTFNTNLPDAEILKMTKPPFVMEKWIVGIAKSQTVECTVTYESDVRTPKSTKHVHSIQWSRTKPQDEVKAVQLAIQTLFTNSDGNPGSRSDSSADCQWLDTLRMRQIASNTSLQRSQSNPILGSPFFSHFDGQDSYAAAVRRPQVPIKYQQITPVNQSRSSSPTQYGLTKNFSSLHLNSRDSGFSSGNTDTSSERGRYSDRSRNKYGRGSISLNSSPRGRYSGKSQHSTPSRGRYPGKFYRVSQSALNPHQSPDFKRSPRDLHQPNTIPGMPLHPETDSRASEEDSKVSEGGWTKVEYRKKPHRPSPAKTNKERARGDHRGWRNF
Chain of Calcium/calmodulin-dependent protein kinase type II subunit gamma (Q13555 whole entry): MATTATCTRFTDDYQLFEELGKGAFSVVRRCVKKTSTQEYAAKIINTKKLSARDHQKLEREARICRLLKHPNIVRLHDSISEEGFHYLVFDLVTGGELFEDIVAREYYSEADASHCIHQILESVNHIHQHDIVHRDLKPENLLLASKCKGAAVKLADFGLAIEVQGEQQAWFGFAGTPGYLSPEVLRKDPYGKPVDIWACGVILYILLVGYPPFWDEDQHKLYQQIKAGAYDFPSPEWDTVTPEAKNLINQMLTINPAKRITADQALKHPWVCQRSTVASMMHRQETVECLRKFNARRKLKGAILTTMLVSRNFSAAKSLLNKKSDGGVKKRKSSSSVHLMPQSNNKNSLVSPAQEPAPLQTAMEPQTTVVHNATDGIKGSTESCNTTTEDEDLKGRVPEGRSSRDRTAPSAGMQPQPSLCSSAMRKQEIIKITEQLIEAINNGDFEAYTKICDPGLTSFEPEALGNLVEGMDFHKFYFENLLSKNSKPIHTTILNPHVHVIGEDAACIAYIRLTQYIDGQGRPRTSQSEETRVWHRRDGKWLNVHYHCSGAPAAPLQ

By Kd is commonly meant the constant that tells how readily two partners part at equilibrium. In the case of `c1cc(OCCN2CCCCC2)cc(-c2n[nH]c3ccc(-c4nc[nH]n4)cc23)c1` [CC-401], the Kd in test [1] was > 30 µM (inactive); in test [2], > 30 µM (inactive); in [3] it was > 30 µM (inactive); in test [4], 3.24 µM (active); in test [5] it was 1.47 µM (active); in test [6], > 30 µM (inactive). For the same compound, the Kd in test [7], in test [8], in test [9], in test [10], in test [11] and in test [12] was > 30 µM (inactive) throughout. The Kd in test [13], in [14] and in test [15] was > 30 µM (inactive) in each case.
`O=C(Nc1ccc(OC(F)(F)F)cc1)c1sccc1NCc1ccnc2ccccc12` [OSI-930]: the Kd was > 30 µM (inactive) in test [1]; > 30 µM (inactive) in [2]; 7.73 µM (active) in [3]; > 30 µM (inactive) in test [4]; > 30 µM (inactive) in [5]; > 30 µM (inactive) in [6]. Besides, the Kd in test [7], in test [8], in [9], in test [10], in [11] and in test [12] was > 30 µM (inactive) throughout. Further, the Kd in test [13], in [14] and in test [15] was > 30 µM (inactive) each time.
In the case of `O=S(=O)(c1cccc2c(O)nccc12)N1CCCNCC1` [HYDROXYFASUDIL], the Kd in [1] is 2.26 µM (active); in test [2], > 30 µM (inactive); in test [3], > 30 µM (inactive); in [4] it was > 30 µM (inactive); in test [5] it was > 30 µM (inactive); in [6] it was > 30 µM (inactive). Besides, the Kd in test [7], in test [8], in test [9], in [10], in [11] and in test [12] was > 30 µM (inactive) in each case. Moreover, the Kd in test [13], in test [14] and in test [15] was > 30 µM (inactive) in each case.
Regarding `C=CC(=O)Nc1cc(Nc2nccc(-c3cn(C)c4ccccc34)n2)c(OC)cc1N(C)CCN(C)C` [OSIMERTINIB], the Kd in test [1], in [2], in [3], in [4], in test [5] and in test [6] was > 30 µM (inactive) in each case. In addition, the Kd in test [7], in test [8], in [9], in test [10], in test [11] and in test [12] was > 30 µM (inactive) throughout. Further, the Kd in test [13], in test [14] and in [15] was > 30 µM (inactive) each time.
With `COCCN1CCN(Cc2ccc(-c3n[nH]c4c3C(=O)c3c(NC(=O)NN5CCOCC5)cccc3-4)cc2)CC1` [RGB-286638], the Kd in [1] was > 30 µM (inactive); in test [2], > 30 µM (inactive); in test [3], 1.11 µM (active); in [4] it was 0.011 µM; in test [5] it was 0.008 µM (active); in [6], > 30 µM (inactive). Moreover, the Kd in test [7], in test [8], in [9], in [10], in test [11] and in test [12] was > 30 µM (inactive) each time. Also, the Kd in test [13], in test [14] and in test [15] was > 30 µM (inactive) in each case.
Take `COc1cc(Nc2ncc(F)c(Nc3ccc4c(n3)N(COP(=O)(O)O)C(=O)C(C)(C)O4)n2)cc(OC)c1OC` [FOSTAMATINIB]: the Kd in test [1], in test [2], in [3], in test [4], in test [5] and in [6] was > 30 µM (inactive) in each case. In addition, the Kd was > 30 µM (inactive) in test [7]; 0.16 µM (active) in [8]; > 30 µM (inactive) in test [9]; > 30 µM (inactive) in test [10]; > 30 µM (inactive) in test [11]; > 30 µM (inactive) in test [12]. The Kd in [13], in test [14] and in [15] was > 30 µM (inactive) each time.
With `C#Cc1cccc(Nc2ncnc3cc4c(cc23)OCCOCCOCCO4)c1` [ICOTINIB], the Kd is > 30 µM (inactive) in [1]; > 30 µM (inactive) in test [2]; > 30 µM (inactive) in test [3]; > 30 µM (inactive) in [4]; > 30 µM (inactive) in test [5]; 1.05 µM (active) in [6]. Further, the Kd in test [7], in [8], in test [9], in [10], in [11] and in test [12] was > 30 µM (inactive) each time. In addition, the Kd in test [13], in test [14] and in test [15] was > 30 µM (inactive) in each case.
`Cn1cc(-c2[nH]c3cc(NC(=O)[C@H](N)C4CCCCC4)cc4c3c2C=NNC4=O)cn1`: the Kd in [1] is > 30 µM (inactive); in test [2] it was > 30 µM (inactive); in test [3], > 30 µM (inactive); in [4] it was > 30 µM (inactive); in test [5], 0.006 µM (active); in test [6], > 30 µM (inactive). In addition, the Kd in test [7], in test [8], in test [9], in test [10], in test [11] and in test [12] was > 30 µM (inactive) in each case. Moreover, the Kd in test [13], in [14] and in test [15] was > 30 µM (inactive) throughout.
